Where two headings read alike, the source gives them in different places.
Columns and labels:
human TLR9 = human TLR9 (Homo sapiens (Human), UniProt Q9NR96); assay: TLR9 inhibition reporter assay (HEK-Blue cells, SEAP reporter, ODN2006 stimulation);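 note: compounds tested over 0.05 nM to 50 µM, 22 h incubation, inhibition taken as SEAP signal drop from agonist plus DMSO wells toward a known inhibitor control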
human TLR7 = human TLR7 (Homo sapiens (Human), UniProt Q9NYK1); assay: TLR7 inhibition reporter assay (HEK-Blue cells, SEAP reporter, gardiquimod stimulation); assay type: cell-based
human TLR8 = human TLR8 (Homo sapiens (Human), UniProt Q9NR97); assay: TLR8 inhibition reporter assay (HEK-Blue cells, SEAP reporter, R848 stimulation);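 note: compounds tested from 0.05 nM to 50 µM, 22 h at 37 °C, SEAP measured with HEK-Blue Detection, inhibition relative to agonist plus DMSO versus a known inhibitor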
[1] = read-out: TLR9 IC50, HEK-Blue cells overexpressing human TLR9, ODN2006 5 nM
[2] = HEK-Blue cells overexpressing human TLR7, gardiquimod 7.5 μM
[3] = read-out: TLR8 IC50, HEK-Blue cells overexpressing human TLR8, R848 15.9 μM
[4] = TLR9 IC50, HEK-Blue cells overexpressing human TLR9, ODN2006 5 nM
[5] = TLR8 IC50, HEK-Blue cells overexpressing human TLR8, R848 15.9 μM

Sequence of human TLR8 (Q9NR97 27-1041): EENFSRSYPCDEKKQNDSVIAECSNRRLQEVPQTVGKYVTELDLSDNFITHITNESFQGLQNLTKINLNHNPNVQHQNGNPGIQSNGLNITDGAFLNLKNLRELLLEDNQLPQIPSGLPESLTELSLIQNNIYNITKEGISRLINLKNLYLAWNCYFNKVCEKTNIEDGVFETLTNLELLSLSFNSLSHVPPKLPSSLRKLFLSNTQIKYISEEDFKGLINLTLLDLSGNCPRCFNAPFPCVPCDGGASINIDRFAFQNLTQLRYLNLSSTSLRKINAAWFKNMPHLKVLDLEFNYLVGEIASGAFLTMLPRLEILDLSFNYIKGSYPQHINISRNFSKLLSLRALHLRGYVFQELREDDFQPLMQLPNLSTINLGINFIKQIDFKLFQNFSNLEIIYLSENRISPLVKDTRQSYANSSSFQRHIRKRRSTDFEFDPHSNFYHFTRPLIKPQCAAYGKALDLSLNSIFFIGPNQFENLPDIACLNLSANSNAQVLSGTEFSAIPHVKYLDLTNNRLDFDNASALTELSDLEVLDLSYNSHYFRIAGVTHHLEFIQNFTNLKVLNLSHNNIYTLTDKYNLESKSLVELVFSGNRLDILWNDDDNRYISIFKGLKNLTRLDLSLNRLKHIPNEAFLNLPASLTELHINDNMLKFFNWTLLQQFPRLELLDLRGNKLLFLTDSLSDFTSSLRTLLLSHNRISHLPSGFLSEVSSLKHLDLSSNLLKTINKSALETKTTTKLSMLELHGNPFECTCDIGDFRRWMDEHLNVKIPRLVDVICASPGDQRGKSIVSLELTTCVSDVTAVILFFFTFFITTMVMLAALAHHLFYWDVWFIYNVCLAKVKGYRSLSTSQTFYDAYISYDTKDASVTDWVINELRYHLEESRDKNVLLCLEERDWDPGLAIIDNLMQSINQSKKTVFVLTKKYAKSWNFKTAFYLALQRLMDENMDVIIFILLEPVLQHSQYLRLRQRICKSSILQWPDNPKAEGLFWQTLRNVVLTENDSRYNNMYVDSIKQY
Sequence of human TLR9 (Q9NR96 26-1032): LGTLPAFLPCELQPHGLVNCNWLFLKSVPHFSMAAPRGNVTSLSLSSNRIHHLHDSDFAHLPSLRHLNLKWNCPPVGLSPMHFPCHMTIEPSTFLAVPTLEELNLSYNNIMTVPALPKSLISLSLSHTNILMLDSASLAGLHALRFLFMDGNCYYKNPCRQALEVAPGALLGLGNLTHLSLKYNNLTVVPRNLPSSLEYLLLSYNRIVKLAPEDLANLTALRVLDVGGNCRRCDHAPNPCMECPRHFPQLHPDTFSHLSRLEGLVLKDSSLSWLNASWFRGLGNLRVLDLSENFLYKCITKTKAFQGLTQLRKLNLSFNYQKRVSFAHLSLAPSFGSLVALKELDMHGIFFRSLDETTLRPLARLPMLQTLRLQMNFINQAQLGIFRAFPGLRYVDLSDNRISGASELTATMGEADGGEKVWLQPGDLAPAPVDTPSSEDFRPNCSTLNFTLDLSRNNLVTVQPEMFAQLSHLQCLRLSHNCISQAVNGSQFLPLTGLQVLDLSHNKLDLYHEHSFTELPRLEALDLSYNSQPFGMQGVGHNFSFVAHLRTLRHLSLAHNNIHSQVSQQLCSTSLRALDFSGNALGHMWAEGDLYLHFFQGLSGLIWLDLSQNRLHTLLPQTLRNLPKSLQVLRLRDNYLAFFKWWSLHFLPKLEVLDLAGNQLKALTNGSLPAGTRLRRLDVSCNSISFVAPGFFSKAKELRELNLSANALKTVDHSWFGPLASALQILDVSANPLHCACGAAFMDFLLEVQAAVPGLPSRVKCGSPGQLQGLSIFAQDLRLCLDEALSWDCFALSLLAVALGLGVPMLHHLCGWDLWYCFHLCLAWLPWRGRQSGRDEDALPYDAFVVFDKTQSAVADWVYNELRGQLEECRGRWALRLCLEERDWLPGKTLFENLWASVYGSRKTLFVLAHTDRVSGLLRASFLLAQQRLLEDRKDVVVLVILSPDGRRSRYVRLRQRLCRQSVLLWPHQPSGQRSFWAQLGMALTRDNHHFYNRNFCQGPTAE
Sequence of human TLR7 (Q9NYK1 27-1049): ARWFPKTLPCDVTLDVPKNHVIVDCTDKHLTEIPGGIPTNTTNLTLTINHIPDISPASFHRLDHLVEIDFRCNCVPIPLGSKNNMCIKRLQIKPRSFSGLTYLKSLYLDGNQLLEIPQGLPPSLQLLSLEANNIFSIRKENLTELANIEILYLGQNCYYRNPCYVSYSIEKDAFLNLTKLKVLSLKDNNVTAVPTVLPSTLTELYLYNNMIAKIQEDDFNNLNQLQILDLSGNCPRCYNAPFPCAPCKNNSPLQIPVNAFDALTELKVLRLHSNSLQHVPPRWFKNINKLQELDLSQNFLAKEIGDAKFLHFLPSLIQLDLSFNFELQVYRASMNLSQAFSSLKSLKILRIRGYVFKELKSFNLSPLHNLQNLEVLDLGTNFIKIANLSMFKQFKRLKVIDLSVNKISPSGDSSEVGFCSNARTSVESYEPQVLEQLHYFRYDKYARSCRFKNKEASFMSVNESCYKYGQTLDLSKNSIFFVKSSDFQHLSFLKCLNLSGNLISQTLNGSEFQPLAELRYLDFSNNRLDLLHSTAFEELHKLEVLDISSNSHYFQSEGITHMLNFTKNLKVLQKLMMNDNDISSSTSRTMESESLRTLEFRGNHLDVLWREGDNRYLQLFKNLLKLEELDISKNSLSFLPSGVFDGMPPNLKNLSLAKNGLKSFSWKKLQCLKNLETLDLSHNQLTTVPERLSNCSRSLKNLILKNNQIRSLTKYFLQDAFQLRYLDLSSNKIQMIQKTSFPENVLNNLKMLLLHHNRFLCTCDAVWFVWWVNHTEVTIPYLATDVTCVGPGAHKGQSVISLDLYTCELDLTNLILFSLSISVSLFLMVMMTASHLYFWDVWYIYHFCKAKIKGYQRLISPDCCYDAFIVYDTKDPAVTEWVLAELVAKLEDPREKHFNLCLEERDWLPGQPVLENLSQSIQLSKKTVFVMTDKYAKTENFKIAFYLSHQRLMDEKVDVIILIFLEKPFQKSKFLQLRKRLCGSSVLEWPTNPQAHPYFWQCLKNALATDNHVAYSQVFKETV

SMILES	IC50 (human TLR9; [1])	IC50 (human TLR7; [2])	IC50 (human TLR8; [3])	IC50 (human TLR9; read-out: TLR9 IC50, HEK-Blue cells, ODN2006 5 nM)	IC50 (human TLR7; HEK-Blue cells, gardiquimod 7.5 μM)	IC50 (human TLR8; read-out: TLR8 IC50, HEK-Blue cells, R848 15.9 μM)	IC50 (human TLR9; [4])	IC50 (human TLR8; [5])
Cc1cc(-c2[nH]c3ccc(C4CCN(CC(=O)N5CCCCC5)CC4)cc3c2C(C)C)cc(C)n1 [Example 241, 2-(4-(2-(2,6-dimethylpyridin-4-yl)-3-isopropyl-1H-indol-5-yl)piperidin-1-yl)-1-(piperidin-1-yl)ethan-1-one]	444 nM	6.4 nM	10.7 nM					
Cc1cc(-c2[nH]c3ccc(C4CCN(Cc5ccn[nH]5)CC4)cc3c2C(C)C)cc(C)n1 [Example 441, 5-(1-((1H-pyrazol-5-yl)methyl)piperidin-4-yl)-2-(2,6-dimethylpyridin-4-yl)-3-isopropyl-1H-indole]	303 nM	1.6 nM	1.7 nM					
CCN(CC)C(=O)CN1CCC(c2ccc3[nH]c(-c4cc(C)nc(C)c4)c(C(C)C)c3c2)CC1 [Example 228, 2-(4-(2-(2,6-dimethylpyridin-4-yl)-3-isopropyl-1H-indol-5-yl)piperidin-1-yl)-N,N-diethylacetamide]	1110 nM	11.5 nM	28.2 nM					
CCCN(CCO)C(=O)CN1CCC(c2ccc3[nH]c(-c4cc(C)nc(C)c4)c(C(C)C)c3c2)CC1 [Example 295, 2-(4-(2-(2,6-dimethylpyridin-4-yl)-3-isopropyl-1H-indol-5-yl)piperidin-1-yl)-N-(2-hydroxyethyl)-N-propylacetamide]	3170 nM	30 nM	142 nM					
Cc1cc(-c2[nH]c3ccc(C4CCN(C5CCCOC5)CC4)cc3c2C(C)C)cc(C)n1 (stereo not drawn) [Example 457, 2-(2,6-dimethylpyridin-4-yl)-3-isopropyl-5-(1-(tetrahydro-2H-pyran-3-yl)piperidin-4-yl)-1H-indole]	274 nM	2.7 nM	8.7 nM					
Cc1cc(-c2[nH]c3ccc(C4CCN(C5CC(C)OC(C)C5)CC4)cc3c2C(C)C)cc(C)n1 (stereo not drawn) [Example 454, 2-(2,6-dimethylpyridin-4-yl)-5-(1-(2,6-dimethyltetrahydro-2H-pyran-4-yl)piperidin-4-yl)-3-isopropyl-1H-indole]	358 nM	11 nM	10.2 nM					
Cc1cc(-c2[nH]c3ccc(C4CCN(CC(=O)N[C@H](C)C(F)(F)F)CC4)cc3c2C(C)C)cc(C)n1 [Example 252, (R)-2-(4-(2-(2,6-dimethylpyridin-4-yl)-3-isopropyl-1H-indol-5-yl)piperidin-1-yl)-N-(1,1,1-trifluoropropan-2-yl)acetamide]	1810 nM	8.3 nM	24.4 nM					
Cc1cc(-c2[nH]c3ccc(C4CCN(C(=O)CN5C[C@@H](F)C[C@H]5CO)CC4)cc3c2C(C)C)cc(C)n1 [Example 409, 1-(4-(2-(2,6-dimethylpyridin-4-yl)-3-isopropyl-1H-indol-5-yl)piperidin-1-yl)-2-((2S,4S)-4-fluoro-2-(hydroxymethyl)pyrrolidin-1-yl)ethan-1-one]	2530 nM	4.1 nM	67.9 nM					
Cc1cc(-c2[nH]c3ccc(C4CCN(Cc5nn[nH]n5)CC4)cc3c2C(C)C)cc(C)n1 [Example 462, 5-(1-((2H-tetrazol-5-yl)methyl)piperidin-4-yl)-2-(2,6-dimethylpyridin-4-yl)-3-isopropyl-1H-indole]	5260 nM	70.4 nM	210 nM					
Cc1cc(-c2[nH]c3ccc(C4CCN(Cc5c[nH]nn5)CC4)cc3c2C(C)C)cc(C)n1 [Example 446, 5-(1-((1H-1,2,3-triazol-4-yl)methyl)piperidin-4-yl)-2-(2,6-dimethylpyridin-4-yl)-3-isopropyl-1H-indole]	292 nM	1.3 nM	2.6 nM					
Cc1cc(-c2[nH]c3ccc(C4CCN(C(=O)C5CCNCC5)CC4)cc3c2C(C)C)ccn1 [Example 573, (4-(3-isopropyl-2-(2-methylpyridin-4-yl)-1H-indol-5-yl)piperidin-1-yl)(piperidin-4-yl)methanone]	379 nM	12.9 nM	33.9 nM					
Cc1cc(-c2[nH]c3ccc(C4CCN(Cc5ccn(C)n5)CC4)cc3c2C(C)C)cc(C)n1 [Example 445, 2-(2,6-dimethylpyridin-4-yl)-3-isopropyl-5-(1-((1-methyl-1H-pyrazol-3-yl)methyl)piperidin-4-yl)-1H-indole]	314 nM	3.6 nM	0.7 nM					
Cc1cc(-c2[nH]c3ccc(C4CCN(CC(=O)N(C)[C@H]5CCOC5)CC4)cc3c2C(C)C)cc(C)n1 [Example 307, (S)-2-(4-(2-(2,6-dimethylpyridin-4-yl)-3-isopropyl-1H-indol-5-yl)piperidin-1-yl)-N-methyl-N-(tetrahydrofuran-3-yl)acetamide]	3680 nM	17.7 nM	87.2 nM					
COCCN1CCN(CC(=O)N2CCC(c3ccc4[nH]c(-c5cc(C)nc(C)c5)c(C(C)C)c4c3)CC2)CC1 [Example 372, 1-(4-(2-(2,6-dimethylpyridin-4-yl)-3-isopropyl-1H-indol-5-yl)piperidin-1-yl)-2-(4-(2-methoxyethyl)piperazin-1-yl)ethan-1-one]		1.9 nM					602 nM	14.1 nM
Cc1cc(-c2[nH]c3ccc(C4CCN(C(=O)C(F)F)CC4)cc3c2C(C)C)cc(C)n1 [Example 105, 1-(4-(2-(2,6-dimethylpyridin-4-yl)-3-isopropyl-1H-indol-5-yl)piperidin-1-yl)-2,2-difluoroethan-1-one]		3.3 nM					12000 nM	21.8 nM
Cc1cc(-c2[nH]c3ccc(C4CCN(C(=O)C5CC(=O)N(C)C5)CC4)cc3c2C(C)C)cc(C2CC2)n1 (stereo not drawn) [Example 507, 4-(4-(2-(2-cyclopropyl-6-methylpyridin-4-yl)-3-isopropyl-1H-indol-5-yl)piperidine-1-carbonyl)-1-methylpyrrolidin-2-one]	19000 nM	52 nM	346 nM					
CCc1c(-c2ccnc(N)c2)[nH]c2ccc([C@@H]3CCNC[C@H]3F)cc12 [491-B]	324 nM	526 nM	34.9 nM					
Cc1cc(-c2[nH]c3ccc(C4CCN(CC5CCOC5)CC4)cc3c2C(C)C)cc(C)n1 (stereo not drawn) [Example 469, 2-(2,6-dimethylpyridin-4-yl)-3-isopropyl-5-(1-((tetrahydrofuran-3-yl)methyl)piperidin-4-yl)-1H-indole]	280 nM	2.1 nM	2.9 nM					
CCC(CC)C(=O)N1CCC(c2ccc3[nH]c(-c4cc(C)nc(C)c4)c(C(C)C)c3c2)CC1 [Example 104, 1-(4-(2-(2,6-dimethylpyridin-4-yl)-3-isopropyl-1H-indol-5-yl)piperidin-1-yl)-2-ethylbutan-1-one]	12000 nM	14.9 nM	249 nM					

Next, values leading:

IC50 (human TLR9; [1])	IC50 (human TLR7; [2])	IC50 (human TLR8; [3])	IC50 (human TLR9; read-out: TLR9 IC50, HEK-Blue cells, ODN2006 5 nM)	IC50 (human TLR7; HEK-Blue cells, gardiquimod 7.5 μM)	IC50 (human TLR8; read-out: TLR8 IC50, HEK-Blue cells, R848 15.9 μM)	IC50 (human TLR9; [4])	IC50 (human TLR8; [5])	SMILES
663 nM	68.1 nM	64.8 nM						CCc1c(-c2ccnc(C)c2)[nH]c2ccc(C3CCN(C)CC3)cc12 [Example 670, 3-ethyl-5-(1-methylpiperidin-4-yl)-2-(2-methylpyridin-4-yl)-1H-indole]
163 nM	6.5 nM	5.8 nM						Cc1cc(-c2[nH]c3ccc(C4CCN(C5CCN(C(C)C)CC5)CC4)cc3c2C(C)C)ccn1 [Example 701, 3-isopropyl-5-(1′-isopropyl-[1,4′-bipiperidin]-4-yl)-2-(2-methylpyridin-4-yl)-1H-indole]
596 nM	141 nM	23.1 nM						COc1cc(-c2[nH]c3ccc(C4CCN(C5CCN(C(C)C)CC5)CC4)cc3c2C(C)C)ccn1 [Example 797, 3-isopropyl-5-(1′-isopropyl-[1,4′-bipiperidin]-4-yl)-2-(2-methoxypyridin-4-yl)-1H-indole]
			> 50000 nM	5.1 nM	120 nM			Cc1cc(-c2[nH]c3ccc(C4CCN(C=O)CC4)cc3c2C(C)C)cc(C)n1 [Example 862, 4-(2-(2,6-dimethylpyridin-4-yl)-3-isopropyl-1H-indol-5-yl)piperidine-1-carbaldehyde]
2720 nM	7.5 nM	1.7 nM						Cc1cc(-c2[nH]c3ccc(C4CCN(Cc5ccn[nH]5)CC4)cc3c2C(C)C)c(F)cn1 [Example 682, 5-(1-((1H-pyrazol-5-yl)methyl)piperidin-4-yl)-2-(5-fluoro-2-methylpyridin-4-yl)-3-isopropyl-1H-indole]
554 nM	8 nM	3 nM						Cc1cc(-c2[nH]c3ccc(C4CCN(C5CCOCC5)CC4)cc3c2C(C)C)ccn1 [Example 710, 3-isopropyl-2-(2-methylpyridin-4-yl)-5-(1-(tetrahydro-2H-pyran-4-yl)piperidin-4-yl)-1H-indole]
3510 nM	11 nM	1.9 nM						Cc1cc(-c2[nH]c3ccc(C4CCN(Cc5c[nH]nn5)CC4)cc3c2C(C)C)c(C)cn1 [Example 690, 5-(1-((1H-1,2,3-triazol-4-yl)methyl)piperidin-4-yl)-2-(2,5-dimethylpyridin-4-yl)-3-isopropyl-1H-indole]
740 nM	561 nM	218 nM						CCN1CCC(N2CCC(c3ccc4[nH]c(-c5ccnc(OC)c5)c(C(C)C)c4c3)CC2)CC1 [Example 801, 5-(1′-ethyl-[1,4′-bipiperidin]-4-yl)-3-isopropyl-2-(2-methoxypyridin-4-yl)-1H-indole]
1540 nM	36.4 nM	42.1 nM						Cc1nccc(-c2[nH]c3ccc(C4CCN(C)CC4)cc3c2C(C)C)c1C [Example 637, 2-(2,3-dimethylpyridin-4-yl)-3-isopropyl-5-(1-methylpiperidin-4-yl)-1H-indole]

Reference: patent publication US10660877B2 (BRISTOL-MYERS SQUIBB COMPANY, priority 2016, dated 2020)
